For one data set, the system named is Streptococcus mutans. The experiment in a line: MIC and MBC evaluation (broth microdilution, agar plate assay). It is filed as cell-based. The protocol: (§1) The MIC and MBC assessment on the pathogenic bacteria and the candidate probiotic lactic acid bacteria was carried out by the broth microdilution assay (BMD) and the agar plate assay, respectively, as described in [4]. The metabolic (dehydrogenase) activity of the lactic acid bacteria was assessed as described in [4].
(§2) P. aeruginosa PAO1 ATCC 15692 was purchased from the American Type Cell Culture Collection (ATCC, Manassas, VA, USA). S. mutans DSM 20523 was bought from the German Collection of Microorganisms and Cell Cultures (DSMZ GmbH, Braunschweig, Germany). All other bacteria and strains were purchased as described in [4].

The test system of the next data set is Streptococcus pyogenes. The data set is described as above. The format is cell-based. The protocol: as §1, §2
Another data set concerns Staphylococcus aureus. Described as above. The format is cell-based. The protocol:
as §1, §2

In a further data set the test system is Enterococcus faecalis. The description is as above. The format is cell-based. The protocol: as §1, §2
The next data set relates to rabbit skin. To be noted: in vivo. The protocol:
Dermal toxicological screening of the chosen two non-toxic active substances was performed on animals. This was carried out according to the European standard ISO 10993-10: 2010 (E): Biological evaluation of medical devices, Part 10 Skin irritation and sensitization tests (6. […] The animal study protocol was approved by the opinion No. 148 of 09.04.2019 of the Ethics Committee of the Bulgarian Food Safety Agency of the Ministry of Agriculture, Food, and Forestry. The Permit to work with experimental rabbits No. 232 was valid until 11.04.2024 and issued on the basis of Article 155, paragraph 7, of the Veterinary Medical Activity Act. The albino rabbits were cared for as specified in ISO 10993-2 (withdrawn; superseded by ISO 10993-2:2022) and Ordinance No. 20 (State Gazette of Bulgaria, No. 87, 9 November 2012). Four square test sites were made on the back of the rabbit by clipping the fur. The samples were applied to 2 of them, while the other 2 were used as a positive control (10–20% SDS) and a negative control (the buffer in which the agents were diluted, i.e., PBS). The exposure time was 4 h, and at the end of it the appearance was checked for erythema (redness) and edema. Additional inspections were performed at hours 24, 48, and 72.

Setting [1] is: bactericidal if ≤ 4, bacteriostatic if > 4.

Where “and” joins values, the source holds several entries; their conditions need not be identical. Identical values can stand only once.

For the compound `CC(C)=CCCC1(C)C(CC=C(C)C)CC2C(=O)C1(C(=O)C(C)C)C(=O)C(CC=C(C)C)=C2O` (stereo not shown) [Olympiforin B], the MBC in the data set with Streptococcus mutans (Streptococcus mutans, read-out: MBC for S. mutans) was 6.25 µg/mL and 11.1 µM; with Streptococcus pyogenes (Streptococcus pyogenes) it was 60 µg/mL and 107 µM; with Staphylococcus aureus (Staphylococcus aureus, read-out: Minimal bactericidal concentration (MBC), Staphylococcus aureus), 19 µg/mL and 34 µM; in the data set on Enterococcus faecalis (Enterococcus faecalis), 55 µg/mL and 98 µM. Also, the minimal inhibitory concentration (MIC) in the data set with Streptococcus mutans (Streptococcus mutans, read-out: MIC for S. mutans) is 3 µg/mL and 5.57 µM. Further, the “MBC/MIC ratio, Streptococcus mutans” value with Streptococcus mutans (setting [1]) was determined as 2. Besides, in the data set on Streptococcus pyogenes (setting [1]), the “MBC/MIC ratio, S. pyogenes” value was 15. Also, the “MBC/MIC ratio, S. aureus” value in the data set on Staphylococcus aureus (setting [1]) came out at 19. Further, the “MBC/MIC ratio, E. faecalis” value with Enterococcus faecalis (setting [1]) was found to be 14. Moreover, the “Skin irritation on rabbits” value with rabbit skin was “do not cause skin toxicity”.

Broadly, the MIC is the smallest concentration in the dilution series that meets the test's criterion for growth inhibition.

(Values after PMC12566971, “Polyprenylated Acylphloroglucinols from Hypericum rochelii and Hypericum olympicum—Cytotoxic Effects on Non-Tumorigenic Cell Lines and Antibacterial Potential” (Pharmaceuticals, 2025).)
